This assay concerns shaved C57/B6 mice. Kind of assay: Hair growth in shaved C57/B6 mice after injection at the shaved site. In kind it is in vivo. To be noted: 300 μl of 1 μg/ml in PBS injected at the shaved site every day for 12 days, vs PBS. How it is done: The backs of C57/B6 mice were shaved bald on the intracapsular part of the back. 300 μl of phosphate buffered saline (PBS) or 300 μl of 1 μg/ml of compound 5 (labelled LnW0033 in FIG. 2) in PBS was injected at the shaved site every day for 12 days.
The backs of C57/B6 mice were shaved bald on the intracapsular part of the back. 300 μl PBS or 300 μl of 1 μg/ml Polyhydroxy-C60 (C60(OH)˜18-24; BuckyUSA, Houston, Tex.; called “Poly C60” in FIG. 3) in PBS was injected at the shaved site every day for 12 days.

Regarding Polyhydroxy-C60, the “hair growth (photograph at day 12) compared to control” value is reported as “hair growth enhancement”.
